This is an account of results in US12263140B1, “Methods of reducing the production of greenhouse gases from animals” (AGRICULTURAL SCIENCES LIMITED, priority 2023, dated 2025).

The conditions of data set [1]: EFSA report 2013; cited from earlier work.
In the next data set the test system is methanogens. The experiment in a line: Fermentation of methyl alcohol in rumen fluid. The data set is classed as cell-based, cow. Conditions: MeOH added to rumen fluid with or without vitamin K1. As for the experimental part: The MeOH was added in equal volumes to tubes containing rumen fluid with (E) or without (C) the addition of vitamin K1. The results are shown as symbols on the Y-axis in FIG. 13, according to one or more embodiments.

In the next data set the test system is cow rumen fluid. The experiment in a line: Fermentation of cow rumen fluid and dried grass (hay) in adjustable pressure fermenter. The data set is classed as cell-based. Also on record: reduction of total gas volume compared to controls, average / reduction of total gas volume compared to controls, minimum / methane emission reduction / methane emission reduction, peak / CO2 volume produced by the fermentation, reduction compared to control samples: concentration or dose not given beside the values. As to conditions: for inhibition of vitamin K1 effects on reducing gas production by grass: Example 2. The source says: The aerial parts of the plants were harvested and allowed to dry for a number of days, the number depend on the weather. When air dry the material was steeped in 30% ethanol for one month or more (up to 3 months). It was important to keep the steep in the dark and to have the steep vessels filled and cover tightly to prevent the entry of air. […] Samples of rumen fluid were collected from either slaughtered cows immediately after slaughter. Samples of rumen fluid were collected from the rumen of these cows by cutting the rumen wall using a sterilised knife and allowing the fluid that exuded from the cut to be collected in a sterilised kidney bowl and held in a Dewar flask at body temperature. The rumen fluid was used within one hour of slaughter. It was passed through cheese cloth or similar to filter out the liquid portion for use in this and further trials. […] The rumen fluid was kept in the dark at a temperature of 36° C. at all times during transport and storage.
The collected rumen fluid samples were mixed with dried grass (hay) to form control samples. […] The prepared samples were then added to a trial fermenter and fermented over time to determine the total amount of gas produced during the fermentation time period along with the CO2 produced and the methane (CH4) production during the trial time period. The tubes were inspected periodically until fermentation stopped. The samples were analysed using gas chromatography (GC) with a permanent gas analysis column, in the order they were made.
The trial fermenter used is an adjustable pressure fermenter system consisting of two arms (one closed and one open) of a manometric setup fastened to a backplate (not shown).
Fermentation tube sizes varied from 50 ml to 250 ml. The closed arm was fixed to the supports and was closed at its top end by means of a removable stopper that has a small rubber or synthetic material septum embedded in the centre.
Samples may be taken from the fermenter using a gas tight microlitre syringe. In use, according to one or more embodiments, the needle of the syringe is able to be inserted through the septum to take samples of fermenting fluid or gas for analysis by gas chromatography.
The arms were free to move up or down so that the pressure in the closed arm could be brought to atmospheric pressure, which occurred when the fluid levels in both arms were at equal heights.
For all early trials lab scale (50 ml) fermenters were used. Up to 20 fermenters could be used at the same time thus giving more reliable replications for statistical analysis. The tubes were held in a water bath held at a temperature of 36° C. with light excluded by a light-proof cover on the bath. The tubes were gently agitated during the fermentation.
The synthetic material was produced by the oxidation of 2-methylnaphthalene to 2-methyl-1,4-naphthoquinone with chromium trioxide in sulphuric and acetic acids. Trials were completed using the above trial fermenter and method using rumen fluid as described in Example 1.
To investigate this, fermentations were completed using the apparatus described in Example 1 and FIG. 1 using samples of fresh cow rumen fluid and dried grass, according to one or more embodiments.

Regarding `CC1=C(C/C=C(\C)CCC[C@H](C)CCC[C@H](C)CCCC(C)C)C(=O)c2ccccc2C1=O` [vitamin K1], the “risk to the environment” value in data set [1] is “not a risk to the environment”. In addition, the “fermentation of MeOH by methanogens” value in the data set with methanogens is listed as “strongly inhibits”. In the data set on cow rumen fluid, the “CO2 volume produced by the fermentation, reduction compared to control samples” value was found to be 83.4%. The “inhibition of vitamin K1 effects on reducing gas production by grass” value in the data set on cow rumen fluid (grass fermented immediately after harvest) is recorded as “total”. The “inhibition of vitamin K1 effects on reducing gas production by grass” value in the data set with cow rumen fluid (older (3+ day old) grass) is listed as “only a small inhibitory effect”. For the same molecule, the gas volume produced entry in the data set on cow rumen fluid (Example 9, Trial 4, vitamin K1 and sulphide both added) was “consistent with and even slightly higher than control”. For the same molecule, in the data set with cow rumen fluid (further trials), the methane emission reduction is on record as 66.7%; the “reduction of total gas volume compared to controls, average” value turned out to be 80.2%; the “reduction of total gas volume compared to controls, maximum” value was 94.5%; the “reduction of total gas volume compared to controls, minimum” value is reported as 75.9%. Also, the “methane emission reduction, peak” value in the data set with cow rumen fluid (further trials, under specific conditions) was found to be 91%.
